Test results as given in patent publication US7482328B2, “Antimicrobial polypeptide and utilization thereof” (Toagosei Co., Ltd., priority 2002, dated 2009).
Residues, ends and D or L forms follow the SMILES beside them. No end group written: not given here.

Experiments:
Format in all cases: cell-based
S. aureus = test system: S. aureus
Protocol: (§1) Regarding the antimicrobial polypeptide of the present invention (samples 1 to 33) and the polypeptides of comparative samples 1 to 3, the antimicrobial activities (minimum inhibitory concentration: MIC) with respect to gram-negative bacteria (E. coli) and gram-positive bacteria (S. aureus) were determined by a liquid medium dilution technique using a 96-well microplate.
(§2) More specifically, liquid bouillon media (“NUTRIENT BROTH Dehydraged” manufactured by DIFCO) in a polypeptide concentration of 500, 250, 125, 62.5, 31.3, 15.6, 7.8, 3.9, 1.9, 1.0 and 0.5 μM were prepared, and filled in a 96-well microplate. On the other hand, bacteria suspension (about 2×10^6 cells/mL) that had been stationary cultured at 37° C. for 18 hours with LB Broth, Lennox (manufactured by DIFCO) were inoculated to each well of the 96-well microplate in an equal amount to that of the pharmaceutical solution (the above-described polypeptide-containing bouillon medium). After inoculation, culture was started in an incubator at 37° C., and it was examined based on the turbidity after 24 hours and 48 hours whether or not bacteria are present. The minimum of the polypeptide concentrations in which no increase in the turbidity caused by bacteria at the time of measurement was observed was defined as MIC in this example.
(§3) The unit of MIC in Table 2 is μM. […]

E. coli = test system: E. coli
Protocol: as §1, §2, §3

[1] = test system: gram-negative bacteria (E. coli) and gram-positive bacteria (S. aureus); assay: antimicrobial test of Example 2, results summed up in words; conditions: summary of Table 2, E. coli and S. aureus
Protocol: as §1, §2

Row | Compound | antimicrobial activity (MIC) S. aureus after 24h (S. aureus) | antimicrobial activity (MIC) S. aureus after 48h (S. aureus) | antimicrobial activity (MIC) E. coli after 24h (E. coli) | antimicrobial activity (MIC) E. coli after 48h (E. coli) | antimicrobial activities (in words) [1]
1 | N=C(N)NCCC[C@H](NC(=O)[C@H](CCCNC(=N)N)NC(=O)[C@H](CCCCN)NC(=O)[C@@H](N)CCCNC(=N)N)C(=O)O [comparative sample 1, RKRR, reference compound] (H-RKRR-OH; N-terminus and C-terminus assumed) | >500 µM | >500 µM | >500 µM | >500 µM | –
2 | CC(C)[C@H](NC(=O)[C@H](CCCCN)NC(=O)[C@H](CCCNC(=N)N)NC(=O)[C@H](CCCCN)NC(=O)[C@H](CCCCN)NC(=O)[C@H](CCCCN)NC(=O)[C@@H]1CCCN1)C(=O)O [sample 1, PKKKRKV] | 62.5 µM | 125.0 µM | 62.5 µM | >500 µM | –
3 | N=C(N)NCCC[C@H](NC(=O)[C@H](CCCNC(=N)N)NC(=O)[C@H](CCCNC(=N)N)NC(=O)[C@H](CCC(N)=O)NC(=O)[C@H](CCCNC(=N)N)NC(=O)[C@H](CCCNC(=N)N)NC(=O)[C@H](CCCCN)NC(=O)[C@H](CCCCN)NC(=O)[C@@H](N)CCCNC(=N)N)C(=O)O [sample 5, RKKRRQRRR] | – | – | – | – | particularly high antimicrobial activities
4 | LALKLAGLDI [compound 3, LALKLAGLDI, reference compound] | >500 µM | >500 µM | >500 µM | >500 µM | –
5 | LALKLAGLDIRKKKRKV [sample 15, LALKLAGLDIRKKKRKV] | 1.9 µM | 3.9 µM | 3.9 µM | 3.9 µM | high antimicrobial activities
6 | LKRKLQR [sample 27, LKRKLQR] | 125.0 µM | 125.0 µM | 500.0 µM | >500 µM | –
7 | LKRKLQRLKRKLQR [sample 30, LKRKLQRLKRKLQR] | 3.9 µM | 3.9 µM | 3.9 µM | 3.9 µM | –
8 | LPPLERLTL [comparative sample 2, LPPLERLTL, reference compound] | >500 µM | >500 µM | >500 µM | >500 µM | –
9 | LPPLERLTLPKKKRKV [sample 9, LPPLERLTLPKKKRKV] | 3.9 µM | 3.9 µM | 31.3 µM | 31.3 µM | –
10 | LPPLERLTLRKKKRKV [sample 13, LPPLERLTLRKKKRKV] | 3.9 µM | 3.9 µM | 15.6 µM | 15.6 µM | –
11 | MRKKKRKVRKKKRKV [sample 33, MRKKKRKVRKKKRKV] | 1.9 µM | 1.9 µM | 3.9 µM | 3.9 µM | –
12 | PKKKRKVALGKLALGKL [sample 31, PKKKRKVALGKLALGKL] | 3.9 µM | 7.8 µM | 7.8 µM | 7.8 µM | –
13 | PKKKRKVLPPLERLTL [sample 8, PKKKRKVLPPLERLTL] | 3.9 µM | 3.9 µM | 31.3 µM | 31.3 µM | –
14 | PKKKRKVLPPLERLTLPKKKRKV [sample 11] | 1.9 µM | 1.9 µM | 3.9 µM | 3.9 µM | –
15 | PKKKRKVPPRKKRTVV [sample 19, PKKKRKVPPRKKRTVV] | 7.8 µM | 7.8 µM | 3.9 µM | 3.9 µM | –
16 | PKKKRRV [sample 26, PKKKRRV] | 125.0 µM | 125.0 µM | 62.5 µM | 500.0 µM | –
17 | PPRKKRTVV [sample 4, PPRKKRTVV] | 125.0 µM | 125.0 µM | 250.0 µM | >500 µM | –
18 | PRRRK [sample 6, PRRRK] | 250.0 µM | 500.0 µM | >500 µM | >500 µM | –
19 | PRRRK-NH2 [sample 23, PRRRK] | 7.8 µM | 15.6 µM | 31.3 µM | 31.3 µM | –
20 | PRRRKPRRRK [sample 18, PRRRKPRRRK] | 7.8 µM | 7.8 µM | 3.9 µM | 3.9 µM | –
21 | RIRKKLR [sample 3, RIRKKLR] | 62.5 µM | 62.5 µM | 62.5 µM | 62.5 µM | –
22 | RKKKRKV-NH2 [sample 24, RKKKRKV-CONH2] | 1.0 µM | 1.0 µM | 3.9 µM | 15.6 µM | higher antimicrobial activities
23 | RKKKRKV-OH [sample 7, RKKKRKV] | 15.6 µM | 31.3 µM | 62.5 µM | 500.0 µM | –
24 | RKKKRKVLPPLERLTL [sample 12, RKKKRKVLPPLERLTL] | 3.9 µM | 3.9 µM | 15.6 µM | 15.6 µM | –
25 | RKKKRKVRKKKRKV-NH2 [sample 25, RKKKRKVRKKKRKV-CONH2] | 1.9 µM | 1.9 µM | 3.9 µM | 3.9 µM | –
26 | RKKKRKVRKKKRKVRKKKRKV [sample 21] | 0.5 µM | 0.5 µM | 1.9 µM | 1.9 µM | –
27 | RKKKRKVRKKKRKVRKKKRKVRKKKRKV [sample 22] | 1.0 µM | 1.0 µM | 1.9 µM | 1.9 µM | –
28 | RQARRNRRRRWR [sample 2, RQARRNRRRRWR] | – | – | – | – | particularly high antimicrobial activities
29 | RQARRNRRRRWRLPPLERLTLD [sample 10] | – | – | – | – | high antimicrobial activities
